We go through 7 compounds from patent US20090069418A1, “Compositions and Methods for the Treatment of Disorders Associated with Aberrant Vasodilation” (priority 2007, published 2009).

Where two headings read alike, the source gives them in different places.

Data set [1] can be described thus: AUDA-BE and its metabolites measured in brain tissue. Format: in vivo, mice. To be noted: for levels detected in homogenates of brain tissue: after AUDA-BE injection, methanol/chloroform extraction. The text has this: This concentration was also biologically effective in lowering blood pressure in hypertensive model (Imig et al. (2005) Hypertension 46:975-81). Therefore, in these experiments, the levels of sEH inhibitors in the blood are in the concentration range expected to inhibit the enzyme.

The subject of data set [2] is neonatal murine cardiomyocytes. The experiment in a line: Oxygen-glucose deprivation of cultured cardiomyocytes transduced with TAT-hsEH, cell death by propidium iodide. Format: cell-based. To be noted: for cell survival after OGD: all polymorphisms/groups tested except Arg287Gln. The procedure: Post natal Day 7-8 C57BL\6 mice were used. 3-4 hearts were obtained from same-gender mice. Cells were dissociated with 0.625% wt/volume trypsin in Ca^2+ and Mg^2+ free HBSS. The cells were centrifuged and re-suspended in FBS-M199. Cells were supplemented with estrogen-free 15% FBS, 100 U/ml penicillin, 100 μg/ml streptomycin, and 25 μM cytosine arabinoside. The cells were then plated at 37° C. for 1 hour under a water-saturated atmosphere of 5% CO2-[…]. Suspended cells were collected and plated at 1.0×10^5 cells/cm^2 and incubated as above for 24 hours.
Six TAT-hsEH fusion proteins, including one wild type and five EPHX2 mutants (Lys55Arg, Arg103Cys, Cys154Tyr, Arg287Gln, and Arg103Cys/Arg287Gln), were expressed and purified as reported (Koerner et al. (2007) J. Neurosci., 27:4642-4649).
TAT-hsEH fusion proteins were added to the medium of cultured cardiomyocytes to the final concentration of 100 nM. The cells were incubated at 37° C. for 24 hours before the onset of oxygen-glucose deprivation.
For oxygen-glucose deprivation (OGD), cells were placed in a Plexiglas hypoxia chamber under 100% N2 at 37° C. and glucose-free medium (MEM/HBSS). For reoxygenation, cells were placed in 21% O2 (5% CO2) and glucose-replete FBS-M199 medium.
Cell death was assessed via propidium iodide (PI, 5 μM) with >300 cells/sample.
Cultured neonatal murine cardiomyocytes were transduced with five human EPHX2 variants linked to the protein transduction domain TAT. Cultures were subjected to 1.5 hours of oxygen and glucose deprivation followed by 3 hours of re-oxygenation, with or without sEH substrate 14,15-EET. Cell death was assessed by propidium iodide (% of all cells, mean±SEM, n=5-9 replicates). Successful transduction was confirmed by immunoblot. All mutants reduced cell death compared to the human wild-type EPHX2 (rh-sEHWT, 63±1%), but only the Arg287Gln mutations was different from untransduced controls (FIG. 13B).

Data set [3] deals with mice. Format: in vivo. The text has this:
Male mice between the ages of 16-24 weeks were anesthetized with isoflurane (induction 4-5 vol %; maintenance 1-2 vol %), intubated with a 20G plastic IV catheter, and mechanically ventilated using a rodent ventilator (Inspira, volume-controlled, Harvard Apparatus, MA). ECG and rectal temperature were continuously monitored using a PC-based recording device (PowerLab 8/30, ADInstruments, Colorado Springs, Colo.). The animals were positioned in a right lateral decubital position on a heating pad and rectal temperature was maintained at 37° C. throughout the experiment. A PE-10 catheter was inserted into the left jugular vein for intravenous drug infusion. Using a dissecting microscope, a left-sided thoracotomy was performed in the 4th intercostal space. […] A ligature (8-0 Monosof MV-135-4, ⅜ 5 mm tapered needle, Syneture, Norwalk, Colo.) was placed around the left coronary artery (LCA) approximately 2 mm distal to the left atrial margin. The suture was fed through a short section of PE-10 tubing to form a snare to allow temporary occlusion. The LCA was occluded for 40 minutes; occlusion was confirmed by persistent ECG changes during occlusion and visual paling of the left ventricle (LV). After 40 minutes the snare was released and reperfusion was confirmed with visual hyperemia of the LV and return of the ECG changes. After 2 hours of reperfusion the LCA was re-occluded and fluorescent polymer microspheres (0.4% solution, diameter 1-10 μm; Duke Scientific Corporation, Palo Alto, Calif.) were infused via needle puncture of the LV apex. […] Heart was then excised, rinsed in normal saline, and the right and left atria were removed under the dissecting microscope. The remaining left and right ventricles were weighed and then sliced into seven sections (d=1 mm) for imaging and staining.
Heart sections were immediately photographed with a digital camera (Canon Powershot A620) under UV light for determination of AAR. Infarct size (I) was determined by staining the heart sections in 1% 2,3,5 triphenyltetrazolium chloride (TTC) in phosphate buffer at pH 7.4 for 10 minutes, followed by 10% neutral buffered formalin (NBF) bath overnight. Pictures were taken the next day under full spectrum light. TTC stained non-infarcted myocardium red, while infarcted myocardium remained white. Both AAR and I areas were calculated in a blinded fashion using standard imaging software (Photoshop Elements 4). A calibration ruler was present in each picture to convert pixels into volume. TTC slices were volume corrected for dehydration following formalin immersion.
The 14,15-EET was obtained from BIOMOL (Plymouth Meeting, Pa.). It was dissolved in a vehicle composed of 100% ethanol and saline (1:3), resulting in a final ethanol solution of 25%. […] SNC-162, a non-peptide δ-opioid receptor agonist, was used for comparison of the magnitude of cardioprotection found within the epoxide pathway. SNC-162 (0.1 μg/g iv over 10 minutes) was dissolved in 10% DMSO.

Data set [4] deals with mice. The data set is described as follows: MCAO in mice, infarct size (Example 6). Format: in vivo. The text has this:
Transient focal cerebral ischemia was induced in adult male mice (20 to 26 g body weight) using the intraluminal MCAO technique, as previously described (Alkayed et al. (2001) J. Neurosci., 21:7543-7550). Briefly, mice were anesthetized with halothane (1.5 to 2% in O2-enriched air by face mask), and kept warm with water pads. A small laser-Doppler probe was affixed to skull to monitor cortical perfusion and verify vascular occlusion and reperfusion. A silicone-coated 6-0 nylon monofilament was inserted into the right internal carotid artery (ICA) via the external carotid artery (ECA) until laser-Doppler signal dropped to <30% of baseline. After securing the filament in place, the surgical site was closed, and the animal was awakened and assessed at 2 hours of occlusion for neurological deficit using a simple neurological scoring system as follows: 0=no deficit, 1=failure to extend forelimb, 2=circling, 3=unilateral weakness, 4=no spontaneous motor activity. […] Infarct size was measured at 24 hours after MCAO in 2-mm thick coronal brain sections (5 total) using 2,3,5-triphenyltetrazolium chloride (TTC) staining and digital image analysis. […] Slices were photographed and infracted (unstained) and uninfarcted (red color) areas were measured with MCID software (InterFocus, Linton, England) and integrated across all 5 slices. […]

Data set [5] is described as follows: Pharmacokinetics of AUDA-BE and its metabolites in plasma after single intraperitoneal injection. Format: in vivo, C57Bl/6 mice. How it is done: A second set of animals was injected with sesame oil alone (vehicle). […] (2002) Biochem. Pharmacol., 63:1599-608; Watanabe et al. (2006) Anal. Chim. Acta., 559:37-44). Briefly, blood samples (10 μL) were collected in 1.5 mL Eppendorf microcentrifuge tubes, weighed, and vortexed with 100 μL of purified water. […] Aliquots (10 μL) were analyzed by liquid chromatography coupled mass spectroscopy LC-MS/MS (Watanabe et al. (2006) Anal. Chim. Acta., 559:37-44; Watanabe and Hammock (2001) Anal. Biochem., 299:227-34). The concentration of sEH inhibitors were quantified in extracts using HPLC with positive mode electrospray ionization and tandem mass spectrometry. Analytes were quantified on a 5-point curve with internal standard methods. Surrogate recoveries were evaluated by quantification against the internal standard. Surrogate recoveries were 70% for all reported plasma samples, the analysis of reagent blanks, matrix spikes, and analytical replicates were used to document method stability during this study. […] Differences in infarct size, enzyme activity, and blood flow rates were analyzed with a t-test for two groups and analysis of variance with post hoc Newman-Keuls multiple range test for multiple groups. The pharmacokinetic profile was examined for goodness of fit to a noncompartmental or multicompartmental models. Pharmacokinetic parameters were then obtained by fitting the blood-concentration-time data to a non-compartmental model with the WinNonlin software (Pharsight, Mountain View, Calif., USA), as described previously (Watanabe et al. (2006) Anal. Chim. Acta., 559:37-44). The criterion for statistical significance was set at P<0.05. All values are reported as mean±s.e.m.

Another data set concerns C57Bl/6 mice. The experiment in a line: Middle cerebral artery occlusion in mice, infarct size (Example 2). Format: in vivo. The conditions noted are these: MS-PPOH alone. How it is done: (2001) J. Neurosci., 21:7543-50). […] A small laser-Doppler probe was affixed to the skull to monitor cortical perfusion and verify vascular occlusion and reperfusion. […] After securing the filament in place, the surgical site was closed, and the animal was awakened and assessed at 2 hours of occlusion for neurological deficit using a simple neurological scoring system as follows: 0=no deficit, 1=failure to extend forelimb, 2=circling, 3=unilateral weakness, 4=no spontaneous motor activity. Mice with clear neurological deficit were re-anesthetized, laser-Doppler probe re-positioned over same site on the skull, and the occluding filament was withdrawn to allow for reperfusion. Mice were then allowed to recover and observed for 1 day. […] Slices were photographed, and infarcted (unstained) and uninfarcted (red color) areas were measured with MCID software (InterFocus Imaging Ltd, Linton, UK) and integrated across all five slices. To account for the effect of edema, the infarcted area was estimated indirectly by subtracting the uninfarcted area in the ipsilateral hemisphere from the contralateral hemisphere, and expressing infarct volume as a percentage of contralateral hemisphere. […] (2000) J. Physiol. Pharmacol., 51:655-72). […] Animals were randomly assigned to treatment groups.

Setting [6] is: given prior to LCA occlusion (PRE).
[7] abbreviates: AUDA-BE 10 mg/kg intraperitoneal.
Setting [8] is: single injection of 10 mg/kg AUDA-BE.

With “12-(3-adamantan-1-yl-ureido)-butyl acid [AUBA]”, in data set [1], the “levels detected in homogenates of brain tissue” value was “not”.

For the compound `O=C(c1ccccc1)C1OC1c1ccc(-c2ccccc2)cc1` (stereo not shown) [4-PCO, 4-phenylchalcone oxide], the “cell survival after OGD” value in data set [2] is “improved cell survival significantly”.

For `CCCCCC1OC1C/C=C\C/C=C\C/C=C\CCCC(=O)O` (stereo not shown) [14,15-EET], the “cell survival after OGD” value in data set [2] is on record as “improved cell survival”. Also, the “cell death (propidium iodide, % of all cells)” value in data set [2] (excess 14,15-EET (1 μM) in Arg287Gln-transduced cardiomyocytes, 1.5 hours OGD, 3 hours re-oxygenation) is 45±1%. Moreover, the “Infarct Volume” value with mice [3] (PRO (given prior to reperfusion)) was 12 ± 2 mm^3; with mice [3] (setting [6]), 10 ± 1 mm^3. Moreover, the “infarct size after myocardial I/R compared to vehicle” value in the data set on mice [3] (given before ischemia or before reperfusion) is recorded as “significantly reduced”. For the same compound, the “bleeding in pilot studies following heparin administration” value with mice [3] (mouse, in vivo) was “excessive bleeding”. In addition, in the data set on mice [3] (mouse, in vivo), the “reducing I/AAR, injection prior to reperfusion compared to pre-ischemic delivery” value is recorded as “less effective”. For the same compound, the “infarct size after MCAO” value in the data set on mice [4] (14,15-EET 1 μg over 24 hours via osmotic minipump, jugular vein, vehicle 34.5±8.6%) stood at 10.9±4.3%.

On to `CCCCCC1OC1CCCCCCC/C=C\CCCC(=O)O` (stereo not shown) [14,15-EEZE, 14,15-epoxyeicosa-5(Z)-enoic acid], for which the “infarct size after MCAO” value in the data set on mice [4] (sEHKO mice, 10 μg over 24 hours via minipump, mean±SD, vehicle-treated sEHKO 9.1±9.5) stood at 9.4±12.4.

With `O=C(O)CCCCCCCCCCCNC(=O)NC12CC3CC(CC(C3)C1)C2` [AUDA, 12-(3-adamantan-1-yl-ureido)-dodecanoic acid], in data set [5] (setting [7]), the “peak concentration in plasma” value is given as 52 nmol/L and the “time of peak concentration in plasma” value worked out at 1 h. For the same compound, the “half time of elimination in plasma” value in data set [5] (AUDA-BE 10 mg/kg intraperitoneal, non-compartmental model) was 7 h. In addition, in data set [5] (AUDA-BE 40 mg/kg intraperitoneal, within the first hour), the “maximum concentration in plasma” value was found to be 4 µmol/L. The MRT in data set [5] (C57Bl/6, mouse, plasma, ip, 10 mg/kg, read-out: mean residence time in plasma) was 9 h. The MRT in data set [1] (C57Bl/6, mouse, brain, intraperitoneal, 10 mg/kg, read-out: mean residence time in brain) came to 6 h. The “levels detected in homogenates of brain tissue” value in data set [1] is “significant levels”. In addition, in data set [1] (setting [8]), the “half-time elimination in brain” value stood at 4 h and the “time to maximum concentration in brain” value is at most 3 h.

For `C#CCOc1ccccc1CCCCCC(=O)NS(C)(=O)=O` [MS-PPOH, N-methylsulfonyl-6-(2-propargyloxyphenyl)hexanamide], the “infarct size after MCAO” value in the data set on C57Bl/6 mice is reported as 24±6%.

Consider `C=CCN1C[C@H](C)N([C@@H](c2ccccc2)c2ccc(C(=O)N(CC)CC)cc2)C[C@H]1C` [SNC-162], for which the “Infarct Volume” value in the data set with mice [3] (setting [6]) amounted to 9 ± 2 mm^3.
